Reference: US20080317692A1, “SUICIDE SUBSTRATES OF TYROSINASE AND USE THEREOF” (SUSTINEO BIOTECHNOLOGY CO., LTD, priority 2007, published 2008)

Assays:
mushroom tyrosinase [1] = assay: Michaelis constant and maximal inactivation rate constant (method of Frere et al.); assay type: biochemical; conditions: for maximal inactivation rate constant ki-max / Ki: 0.03 μM tyrosinase, 2.5 mM L-DOPA as enzyme substrate, 50 to 300 μM suicide substrate (FIG. 6); for Ki: read-out: Michaelis constant KI of the inactivator
Text: The kinetics of inhibition of 7,8,4′-trihydroxyisoflavone and 5,7,8,4′-tetrahydroxyisoflavone were studied by using the method of Frere et al. and by measuring the oxidation of L-DOPA by mushroom tyrosinase in the presence of each of the two suicide substrates. During the assay, the concentration of the tested suicide substrate was much higher than that of the enzyme. When the progress of the inactivation of the enzyme was monitored at high suicide substrate/enzyme ratios, the concentration of suicide substrate ([I]) could be considered as constant throughout the process and a pseudo-first-order rate constant (ki) could be determined by using equation 1, where ki-max and KI represent the maximal inactivation velocity and the Michaelis constant of the inactivator.
In the presence of L-DOPA, the exponential decrease in the rate of oxidation of L-DOPA gave an apparent first-order rate constant kobs, which was computed from plots of ln(vt/v0) against t, where v0 and vt are the rates of increase of absorbance at 475 nm, at zero time and at time t, respectively. Assuming a competitive interaction between the added isoflavone and L-DOPA with the enzyme, the variation of kobs with the concentrations of the isoflavone ([I]) and L-DOPA ([S]) are given by equation 2
where KS and KI are the Michaelis constants for L-DOPA and the isoflavone, respectively. When equation 2 is written as
[I]/kobs=[I]/ki-max+KI/ki-max(1+[S]/KS) (3)
it is clear that a plot of [I]/kobs against [I] will be linear and that ki-max and KI can be found from the intercept and slope.
The Michaelis constants (KI) and maximal inactivation rate constants (ki-max) of suicide substrates were determined according to the method of Frere et al. (17). The inactivation reactions were carried out in the presence of 0.03 μM mushroom tyrosinase, 2.5 mM L-DOPA, and the suicide substrate at concentrations ranging from 50 to 300 μM, and the formation of dopachrome was monitored every second for 2 min with a spectrophotometer. […] Both KI and ki-max could thus be calculated, assuming a competition between the added isoflavone and L-DOPA.

mushroom tyrosinase [2] = assay: Irreversible inhibitory activity assay (preincubation with tyrosinase, then L-DOPA); conditions: for enzyme inactivation after preincubation: 10 μM isoflavone, after 7 min of preincubation (FIG. 4); for type of inhibition: preincubation with 3 or 10 μM isoflavone
Method: In irreversible inhibitory activity assays, 20 units of tyrosinase was preincubated with a 3 or 10 μM concentration of the tested isoflavone (dissolved in DMSO) in 1 mL of 50 mM phosphate buffer (pH 6.8) at 25° C. At intervals of 0, 2, 7, 12, and 30 min, 200 μL of the preincubation mixture was mixed with 800 μL of 2.5 mM L-DOPA and incubated at 25° C. for 10 min. The formation of dopachrome in each reaction was monitored with a spectrophotometer. The relative activity was calculated by dividing the absorbance at 475 nm of each reaction by that of the control reaction, in which DMSO replaced the added isoflavone. For recovery experiments, the preincubation mixture incubated for 30 min was either dialyzed twice against 200 mL of phosphate buffer at 4° C. for 1 h with stirring or centrifuged through a Sephadex G-25 spin column (Sigma). Then, the residual tyrosinase activities of the mixtures from the two treatments were assayed as described above.
Then, 800 μL of 2.5 mM L-DOPA was added, and the reaction mixture was incubated at 25° C. for 10 min. For comparison, another set of experiments was conducted by mixing immediately the tested compound, tyrosinase, and L-DOPA in 1 mL of phosphate buffer and incubated at 25° C. for 10 min. The formation of dopachrome in each reaction was monitored with a spectrophotometer. The relative activity was calculated by dividing the absorbance at 475 nm of each reaction mixture by that of the control reaction, in which DMSO replaced the tested compound. All enzymatic reactions described above were carried out at least three times independently, and the average values are presented.

mushroom tyrosinase [3] = assay: Enzymatic assay of tyrosinase (dopachrome formation at 475 nm, L-tyrosine or L-DOPA as substrate); assay type: biochemical; conditions: 0.05 mM isoflavone; for inhibition of monophenolase activity (dopachrome formation): 0.1 mM L-tyrosine as substrate (FIG. 2A); for lag time of monophenolase activity (L-tyrosine oxidation): 0.1 mM L-tyrosine, tyrosinase 100 units/mL (FIG. 2A)
Method: Ten microliters of the test sample (dissolved in DMSO) was mixed with 970 μL of 0.112 mM substrate (L-tyrosine or L-DOPA dissolved in 50 mM phosphate buffer, pH 6.8) at 25° C. for 2 min. […] The increase in absorbance at 475 nm due to the formation of dopachrome was monitored with a spectrophotometer.

mushroom tyrosinase [4] = assay: Partition ratio of suicide substrate (method of Waley, titration of tyrosinase); assay type: biochemical; conditions: for molecules required to inactivate 1 molecule of the enzyme (1+r): 0.1 μM tyrosinase, preincubated 30 min at 25° C., by extrapolation (FIG. 5); for partition ratio r: from the intercept on the abscissa in FIG. 5, which is 1+r
mushroom tyrosinase [5] = assay: HPLC analysis of the reaction of isoflavone with tyrosinase (substrate behaviour); assay type: biochemical; conditions: 100 μM isoflavone, tyrosinase 1000 units/mL, 50 mM phosphate buffer pH 6.8 (FIG. 3)

| Compound | Michaelis constant KS for L-DOPA (mushroom tyrosinase [1]; same experimental conditions) | enzyme inactivation after preincubation (mushroom tyrosinase [2]) | type of inhibition (mushroom tyrosinase [2]) | inhibition of monophenolase activity (dopachrome formation) (mushroom tyrosinase [3]) | lag time of monophenolase activity (L-tyrosine oxidation) (mushroom tyrosinase [3]) | molecules required to inactivate 1 molecule of the enzyme (1+r) (mushroom tyrosinase [4]) | partition ratio r (mushroom tyrosinase [4]) | maximal inactivation rate constant ki-max (mushroom tyrosinase [1]) | Ki (mushroom tyrosinase [1]) | behaviour as substrate of tyrosinase (HPLC) (mushroom tyrosinase [5]) |
| --- | --- | --- | --- | --- | --- | --- | --- | --- | --- | --- |
| N[C@@H](Cc1ccc(O)c(O)c1)C(=O)O [L-DOPA, 3,4-dihydroxyphenylalanine, reference compound] | 0.25 ± 0.01 mM | – | – | – | – | – | – | – | – | – |
| O=c1c(-c2ccc(O)cc2)coc2c(O)c(O)ccc12 [7,8,4′-trihydroxyisoflavone] | – | totally inactivated | irreversible inhibitors | slowed and stopped the formation of dopachrome | without the lag time | 82.7±5.9 molecules | 81.7±5.9 | 0.79 ± 0.08 L·min | 18.7 ± 2.31 µM | acted as the substrates of mushroom tyrosinase |
| O=c1c(-c2ccc(O)cc2)coc2c(O)c(O)cc(O)c12 [5,7,8,4′-tetrahydroxyisoflavone] | – | totally inactivated | irreversible inhibitors | slowed and stopped the formation of dopachrome | without the lag time | 36.5±3.8 molecules | 35.5±3.8 | 1.01 ± 0.04 L·min | 7.81 ± 0.05 µM | acted as the substrates of mushroom tyrosinase |
